The values that follow come from ChEMBL document CHEMBL4428041, “Identification and SAR Evaluation of Hemozoin-Inhibiting Benzamides Active against Plasmodium falciparum” (J Med Chem, 2016).

Activity calls are given as the source filed them. No cut-off for these calls is given here.

In general, IC50 refers to the midpoint of a concentration-inhibition curve.

Experiment [1] relates to Hemozoin. The experiment is described as follows: Inhibition of beta-hematin in water/NP40/DMSO solution incubated for 5 to 6hrs by detergent-mediated pyridine-ferrichrome method.
Experiment [2] deals with Plasmodium falciparum. The experiment is described as follows: Antimalarial activity against CQ-sensitive Plasmodium falciparum NF54 infected in human type O+ erythrocytes assessed as growth inhibition incubated for 48 hrs by LDH assay. In kind it is functional, organism-based. The following applies: NF54, 48 h.
In experiment [3] the test system is Ferriprotoporphyrin IX.
Description: Binding affinity to Fe(3)PP9 in hematin solution at pH 7.5 by titration-based UV-vis spectrophotometrical analysis
Experiment [4] has as its system Hemozoin. The experiment is described as follows: Inhibition of hemozoin formation in CQ-sensitive Plasmodium falciparum D10 infected in human type O+ erythrocytes assessed as free heme level at beta-hematin IC50 incubated for 32 hrs by cell fractionation assay (reference value: 7%). Format: cell-based. More on the design: scale not given: the % may be the effect or the level left. The following applies: Erythrocyte.

The test system of experiment [5] is Hemozoin. The experiment is described as follows: Inhibition of hemozoin formation in CQ-sensitive Plasmodium falciparum D10 infected in human type O+ erythrocytes assessed as hemozoin level at beta-hematin IC50 incubated for 32 hrs by cell fractionation assay (reference value: 89%). Format: cell-based. More on the design: scale not given: the % may be the effect or the level left. The following applies: Erythrocyte.

Experiment [6] has as its system Hemozoin. Description: Inhibition of hemozoin formation in CQ-sensitive Plasmodium falciparum D10 infected in human type O+ erythrocytes assessed as increase in free heme at 0.5 to 4 times beta-hematin IC50 incubated for 32 hrs by cell fractionation assay. In kind it is cell-based. The settings on record: Erythrocyte.
In experiment [7] the test system is Hemozoin. Description: Inhibition of hemozoin formation in CQ-sensitive Plasmodium falciparum D10 infected in human type O+ erythrocytes assessed as decrease in hemozoin formation at 0.5 to 4 times beta-hematin IC50 incubated for 32 hrs by cell fractionation assay. In kind it is cell-based. The settings on record: Erythrocyte.
The subject of experiment [8] is Plasmodium falciparum. The experiment is described as follows: Antimalarial activity against CQ-sensitive Plasmodium falciparum D10 infected in human type O+ erythrocytes assessed as growth inhibition incubated for 48 hrs by LDH assay. In kind it is functional, organism-based. The settings on record: D10, 48 h.
Experiment [9] relates to Hemozoin. Description: Inhibition of hemozoin formation in CQ-sensitive Plasmodium falciparum D10 infected in human type O+ erythrocytes assessed as increase in free heme incubated for 32 hrs by cell fractionation assay. In kind it is cell-based. The following applies: Erythrocyte.
Experiment [10] has as its system Hemozoin. The experiment is described as follows: Inhibition of hemozoin formation in CQ-sensitive Plasmodium falciparum D10 infected in human type O+ erythrocytes assessed as decrease in hemozoin formation incubated for 32 hrs by cell fractionation assay. In kind it is cell-based. The settings on record: Erythrocyte.
Experiment [11] relates to Ferriprotoporphyrin IX. The experiment is described as follows: Binding affinity to Fe(3)PP9 solution assessed as ferriprotoporphyrin 9 complex formation by measuring pink precipitate formation at <=5500 uM.
Experiment [12] relates to Ferriprotoporphyrin IX. The experiment is described as follows: Binding affinity to Fe(3)PP9 solution assessed as ferriprotoporphyrin 9 complex formation by measuring compound concentration causing pink precipitate formation at <=5500 uM.
Experiment [13] concerns Hemozoin. Description: Inhibition of beta-hematin incubated for 6 hrs by NP40 detergent-mediated assay.
Experiment [14] relates to Plasmodium falciparum. Description: Antimalarial activity against Plasmodium falciparum D6 infected in red blood cells assessed as growth inhibition by SYBR green1 fluorescence-based assay. Format: functional, organism-based.
For experiment [15], the system named is Plasmodium falciparum. Description: Antimalarial activity against CQ-sensitive Plasmodium falciparum D10 infected in human type O+ erythrocytes assessed as growth inhibition up to 249 uM incubated for 48 hrs by LDH assay. In kind it is functional, organism-based.
Experiment [16] has as its system Plasmodium falciparum. The experiment is described as follows: Antimalarial activity against CQ-sensitive Plasmodium falciparum NF54 infected in human type O+ erythrocytes assessed as growth inhibition up to 249 uM incubated for 48 hrs by LDH assay. In kind it is functional, organism-based.

As for `Cc1cc(C(=O)Nc2ccncc2)cc(C(=O)Nc2ccncc2)c1`, the IC50 amounted to 8 µM in the experiment on Hemozoin [1] and 2.5 µM with Plasmodium falciparum [2]. Further, in the experiment on Ferriprotoporphyrin IX [3], the log K is 3.92.

As to `Cc1cc(C(=O)Nc2ccccc2)cc(C(=O)Nc2ccccc2)c1`, the IC50 was more than 1000 µM in the experiment on Hemozoin [1] and 146 µM in the experiment on Plasmodium falciparum [2].

Turning to `O=C(Nc1ccccc1)c1cc([N+](=O)[O-])cc([N+](=O)[O-])c1`, the IC50 in the experiment with Hemozoin [1] worked out at 22 µM; with Plasmodium falciparum [2], 5 µM.

On to `CN(C)Cc1ccc(NC(=O)c2cc(C(=O)Nc3ccc(CN(C)C)cc3)cc([N+](=O)[O-])c2)cc1`, for which the IC50 with Hemozoin [1] was 7.9 µM; in the experiment with Plasmodium falciparum [2] it was 1.5 µM. In addition, the Activity was determined as 41% with Hemozoin [4] and 53% in the experiment on Hemozoin [5].

On to `CC(C)(C)c1cc(C(=O)Nc2ccccc2)cc(C(=O)Nc2ccccc2)c1`, for which the concentration for half-maximal inhibition (IC50) with Hemozoin [1] is more than 1000 µM; with Plasmodium falciparum [2] it was 8.1 µM. Moreover, the inhibition result in the experiment on Hemozoin [6] and in the experiment with Hemozoin [7] was “inactive” throughout.

Consider `O=C(Nc1cccnc1)c1cc([N+](=O)[O-])cc([N+](=O)[O-])c1`, for which the IC50 in the experiment with Hemozoin [1] turned out to be 13 µM; in the experiment on Plasmodium falciparum [8], 2.3 µM; with Plasmodium falciparum [2], 5 µM. For the same compound, the inhibition entry with Hemozoin [9] and in the experiment on Hemozoin [10] was “Dose-dependent effect” throughout.

With `O=C(Nc1ccccc1)c1ccccc1[N+](=O)[O-]`, the IC50 in the experiment with Hemozoin [1] was more than 1000 µM; in the experiment on Plasmodium falciparum [2], more than 41.3 µM.

Consider `CCN(CC)CCCC(C)Nc1ccnc2cc(Cl)ccc12` (stereo not drawn) [CHLOROQUINE], for which, in the experiment on Hemozoin [1], the midpoint of inhibition, the IC50, lay at 31.5 µM.

For the compound `O=C(Nc1ccncc1)c1ccccc1`, in the experiment with Hemozoin [1], the IC50 was more than 5500 µM. The outcome in the experiment on Ferriprotoporphyrin IX [11] and with Ferriprotoporphyrin IX [12] was inactive.

For the compound `O=C(Nc1ccccc1)c1ccc([N+](=O)[O-])cc1`, in the experiment on Hemozoin [1], the IC50 is more than 5500 µM. For the same compound, the result in the experiment on Ferriprotoporphyrin IX [11] and in the experiment on Ferriprotoporphyrin IX [12] was inactive.

Take `COc1cc(C(=O)Nc2ccncc2)cc(C(=O)Nc2ccncc2)c1`: the values for the IC50 in the experiment on Hemozoin [1] and in the experiment on Plasmodium falciparum [2] were 22 µM and 3 µM, respectively.

Regarding `O=C(Nc1ccncc1)c1cc([N+](=O)[O-])cc([N+](=O)[O-])c1`, the IC50 with Hemozoin [1] amounted to 10.9 µM; in the experiment with Plasmodium falciparum [8], 2.4 µM; in the experiment with Plasmodium falciparum [2], 2.3 µM; in the experiment with Hemozoin [13], 9.04 µM; with Plasmodium falciparum [14], 4.76 µM.

Take `N#Cc1cc(C(=O)Nc2ccncc2)cc(C(=O)Nc2ccncc2)c1`: the IC50 was found to be 6.34 µM in the experiment on Hemozoin [1], 2 µM in the experiment with Plasmodium falciparum [8] and 1.9 µM in the experiment with Plasmodium falciparum [2].

In the experiment with Hemozoin [1], `COc1ccc(C(=O)Nc2ccncc2)cc1` yielded an IC50 of more than 5500 µM. The result with Ferriprotoporphyrin IX [11] and in the experiment with Ferriprotoporphyrin IX [12] was inactive.

For the compound `O=C(Nc1ccncc1)c1cccc(C(=O)Nc2ccncc2)n1`, the IC50 is 260 µM in the experiment with Hemozoin [1] and more than 315 µM in the experiment on Plasmodium falciparum [2].

Take `O=C(Nc1ccccc1)c1cccc(C(=O)Nc2ccccc2)n1`: the concentration for half-maximal inhibition (IC50) in the experiment with Hemozoin [1] was more than 1000 µM; in the experiment on Plasmodium falciparum [2], more than 315 µM.

With `O=C(Nc1ccccn1)c1cc([N+](=O)[O-])cc([N+](=O)[O-])c1`, the IC50 turned out to be 134 µM with Hemozoin [1], 24 µM in the experiment on Plasmodium falciparum [8] and 22 µM in the experiment on Plasmodium falciparum [2].

Take `O=C(Nc1ccncc1)c1cccc(C(F)(F)F)c1`: the Activity with Ferriprotoporphyrin IX [12] is 1300 to 2300 µM.

Compound `O=C(Nc1ccccc1)c1cc(C(=O)Nc2nc3ccccc3[nH]2)cc([N+](=O)[O-])c1` displayed an IC50 in the experiment on Hemozoin [1] of 68 µM. For the same compound, the outcome with Plasmodium falciparum [15] and in the experiment on Plasmodium falciparum [16] was inactive.
